Experimental findings from patent US9884048B2, “ERK inhibitors” (Merck Sharp & Dohme Corp., priority 2014, dated 2018) are described below.

In the first assay the target is phosphorylated active hERK2 enzyme (Homo sapiens (Human), UniProt P28482).
Sequence of phosphorylated active hERK2 enzyme (P28482 whole entry): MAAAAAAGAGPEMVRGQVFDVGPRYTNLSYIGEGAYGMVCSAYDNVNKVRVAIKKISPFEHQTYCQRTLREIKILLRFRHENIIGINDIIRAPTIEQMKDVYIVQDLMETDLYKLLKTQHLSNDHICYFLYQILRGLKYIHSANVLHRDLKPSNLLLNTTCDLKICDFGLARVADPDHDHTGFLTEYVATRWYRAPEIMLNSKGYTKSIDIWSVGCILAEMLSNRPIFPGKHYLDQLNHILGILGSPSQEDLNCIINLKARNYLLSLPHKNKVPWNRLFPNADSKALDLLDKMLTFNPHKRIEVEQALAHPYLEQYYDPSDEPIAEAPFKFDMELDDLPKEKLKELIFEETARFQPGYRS
Details: not given
In general, IC50 refers to the midpoint of a concentration-inhibition curve. Turning to `Cc1cc(-n2ncc3cc(NC(=O)N[C@H]4CCC[C@H]4c4ccc(F)cc4)ncc32)ccn1` (racemic) [Example 153, Racemic cis 1-[(1S,2S) and (1R,2R)-2-(4-fluorophenyl)cyclopentyl]-3-[1-(2-methylpyridin-4-yl)-1H-pyrazolo[3,4-c]pyridin-5-yl]urea], half-maximal inhibition (IC50) required 42.3 nM.

The same assay, now with this note: read-out: ERK2 IC50; IMAP-FP assay; 0.5 nM hERK2, 30 μM ATP; 10 point titration, 3 μM starting concentration.
Turning to `Cc1cc(-n2ncc3cc(NC(=O)N[C@@H]4CN(C)C[C@H]4c4ccc(C)s4)ncc32)ccn1` [Example 188, 1-[(3S,4R)-1-methyl-4-(5-methylthiophen-2-yl)pyrrolidin-3-yl]-3-[1-(2-methylpyridin-4-yl)-1H-pyrazolo[3,4-c]pyridin-5-yl]urea], the IC50 was 70.1 nM. The same measure, in the same setting: in the case of `Cc1cc(-n2ncc3cc(NC(=O)N[C@H]4CCCC[C@@H]4N(C)C)ncc32)ccn1` [Example 143, 1-[(1S,2S)-2-(dimethylamino)cyclohexyl]-3-[1-(2-methylpyridin-4-yl)-1H-pyrazolo[3,4-c]pyridin-5-yl)urea] it was 127 nM; in that of `Cc1cc(-n2ncc3cc(NC(=O)NCc4ccccc4)ncc32)ccn1` [Example 58, 1-benzyl-3-[1-(2-methylpyridin-4-yl)-1H-pyrazolo[3,4-c]pyridin-5-yl]urea], 8.41 nM; in that of `Cc1cc(-n2ncc3cc(NC(=O)NCc4sc(C(C)C)nc4C)ncc32)ccn1` [Example 68, 1-{[4-methyl-2-(1-methylethyl)-1,3-thiazol-5-yl]methyl}-3-[1-[2-methylpyridin-4-yl)-1H-pyrazolo[3,4-c]pyridin-5-yl]urea], 707 nM. Same read-out and setting: in the case of `Cc1cc(-n2ncc3cc(NC(=O)N[C@H](C)c4ccc(Cl)c(Cl)c4)ncc32)ccn1` [Example 220, 1-[(1R)-1-(3,4-dichlorophenyl)ethyl]-3-[1-(2-methylpyridin-4-yl)-1H-pyrazolo[3,4-c]pyridin-5-yl]urea] it was 3.33 nM. As for `Cc1cc(-n2ncc3cc(NC(=O)NC(C)c4csc(C)n4)ncc32)ccn1` (stereo not drawn) [Example 123, 1-[1-(2-methylpyridin-4-yl)-1H-pyrazolo[3,4-c]pyridin-5-yl]-3-[1-(2-methyl-1,3-thiazol-4-yl)ethyl]urea], the IC50 was found to be 24.8 nM.

As for `Cc1cc(-n2ncc3cc(NC(=O)N[C@H]4CN(C)C[C@@H]4c4sccc4C)ncc32)ccn1` [Example 113, 1-[(3R,4S)-1-methyl-4-(3-methylthiophen-2-yl)pyrrolidin-3-yl]-3-[1-(2-methylpyridin-4-yl)-1H-pyrazolo[3,4-c]pyridin-5-yl)urea], the IC50 was determined as 7.11 nM. On to `Cc1cc(-n2ncc3cc(NC(=O)N[C@@H](c4ccccc4)C(C)(C)O)ncc32)ccn1` [Example 292, (S)-1-(2-methyl-2-hydroxy-1-phenylpropyl)-3-(1-(2-methylpyridin-4-yl)-1H-pyrazolo[3,4-c]pyridin-5-yl)urea], for which the IC50 was 0.558 nM.

For `CC(=O)NCc1nc(NC(=O)N[C@H](C)c2ccccc2)cc2cnn(-c3ccc(F)cc3)c12` [Example 325, N-{[1-(4-fluorophenyl)-5-({[(1R)-1-phenylethyl]carbamoyl}amino)-1H-pyrazolo[3,4-c]pyridin-7-yl]methyl}acetamide], the IC50 came out at 289 nM.

As to `CCCn1ncc2cc(NC(=O)N[C@H](C)c3ccccc3)nc(CO)c21` [Example 305, 1-[7-(hydroxymethyl)-1-propyl-1H-pyrazolo[3,4-c]pyridin-5-yl]-3-[(1R)-1-phenylethyl]urea], the IC50 turned out to be 43.7 nM.

`Cc1cc(-n2ncc3cc(NC(=O)N[C@H]4[C@H](c5ccccc5)CN(C)C45COC5)ncc32)ccn1` [Example 183, 1-[(7R,8S)-5-methyl-7-phenyl-2-oxa-5-azaspiro[3.4]oct-8-yl]-3-[1-(2-methylpyridin-4-yl)-1H-pyrazolo[3,4-c]pyridin-5-yl]urea]: the half-inhibitory concentration (IC50) came to 12.2 nM. Consider `C[C@@H](NC(=O)Nc1cc2cnn(CC3CCOC3)c2c(CO)n1)c1ccccc1` (stereo partly drawn) [Example 311, 1-[7-(hydroxymethyl)-1-(tetra-hydrofuran-3-ylmethyl)-1H-pyrazolo[3,4-c]pyridin-5-yl]-3-[(1R)-1-phenylethyl]urea], for which the IC50 was found to be 158 nM. As for `Cc1cc(-n2ncc3cc(NC(=O)N[C@@H]4C[C@H](C)N(C)C4)ncc32)ccn1` [Example 26, 1-[(3R,5S)-1,5-dimethylpyrrolidin-3-yl]-3-[1-(2-methylpyridin-4-yl)-1H-pyrazolo[3,4-c]pyridin-5-yl]urea], the IC50 came out at 275 nM.

On to `CO[C@@H]1CN(C)C[C@H]1NC(=O)Nc1cc2cnn(-c3ccnc(C)c3)c2cn1` [Example 194, 1-[(3R,4R)-4-methoxy-1-methylpyrrolidin-3-yl]-3-[1-(2-methylpyridin-4-yl)-1H-pyrazolo[3,4-c]pyridin-5-yl]urea], for which the IC50 was 47.7 nM.

`CCn1ncc2cc(NC(=O)N[C@H](C)c3ccccc3)nc(OCCO)c21` [Example 258, 1-[1-ethyl-7-(2-hydroxyethoxy)-1H-pyrazolo[3,4-c]pyridin-5-yl]-3-[(1R)-1-phenylethyl]urea]: the IC50 was found to be 35.3 nM. On the same count and under the same terms, in the case of `Cc1cc(-n2ncc3cc(NC(=O)NC4CCCC(c5ccccc5)C4)ncc32)ccn1` (stereo not drawn) [Example 171, 1-[1-(2-methylpyridin-4-yl)-1H-pyrazolo[3,4-c]pyridin-5-yl]-3-(3-phenyl-cyclohexyl)urea] it was 2.85 nM; in that of `Cc1cc(-n2ncc3cc(NC(=O)N[C@H](C)c4ccccc4)nc(COC4COC4)c32)ccn1` [Example 250, 1-{1-(2-methylpyridin-4-yl)-7-[(oxetan-3-yloxy)methyl]-1H-pyrazolo[3,4-c]pyridin-5-yl}-3-[(1R)-1-phenylethyl]urea], 25 nM; in that of `Cc1cc(-n2ncc3cc(NC(=O)NCC4CN(C(C)C(F)(F)F)C4)ncc32)ccn1` (stereo not drawn) [Example 27, 1-[1-(2-methylpyridin-4-yl)-1H-pyrazolo[3,4-c]pyridin-5-yl]-3-{[1-(2,2,2-trifluoro-1-methylethyl)azetidin-3-yl]methyl}urea], 122 nM. Still for that read-out and setting: in the case of `Cc1cc(-n2ncc3cc(NC(=O)N[C@@H]4CN(C)[C@@H](C)[C@H]4c4ccccc4C)ncc32)ccn1` [Example 105, 1-[(3S,4S,5S)-1,5-dimethyl-4-(2-methylphenyl)-pyrrolidin-3-yl]-3-[1-(2-methylpyridin-4-yl)-1H-pyrazolo[3,4-c]pyridin-5-yl)urea] it was 2.15 nM; in that of `COC(=O)NCc1nc(NC(=O)N[C@H](C)c2ccccc2)cc2cnn(-c3ccc(F)cc3)c12` [Example 326, Methyl {[1-(4-fluorophenyl)-5-({[(1R)-1-phenylethyl]carbamoyl}amino)-1H-pyrazolo[3,4-c]pyridin-7-yl]methyl}carbamate], 17.6 nM. Same read-out and setting: to `Cc1cc(-n2ncc3cc(NC(=O)NCCOc4ccccc4F)ncc32)ccn1` [Example 87, 1-[2-(2-fluorophenoxy)ethyl]-3-[1-(2-methylpyridin-4-yl)-1H-pyrazolo[3,4-c]pyridin-5-yl)urea] belongs 6.38 nM.

As to `Cc1cc(-n2ncc3cc(NC(=O)N[C@H](C)c4ccccc4)nc(CO)c32)ccn1` [Example 300, 1-[7-(Hydroxymethyl)-1-(2-methylpyridin-4-yl)-1H-pyrazolo[3,4-c]pyridin-5-yl]-3-[(1R)-1-phenylethyl]urea], the IC50 was 10.3 nM.

`Cc1cc(-n2ncc3cc(NC(=O)NCc4csc5ccccc45)ncc32)ccn1` [Example 125, 1-(1-benzothiophen-3-ylmethyl)-3-[1-(2-methylpyridin-4-yl)-1H-pyrazolo[3,4-c]pyridin-5-yl)urea]: the IC50 was determined as 84.5 nM. Take `Cc1cc(-n2ncc3cc(NC(=O)N[C@H]4CCC[C@H]4Cc4ccccc4)ncc32)ccn1` [Example 160, 1-[(1S,2S)-2-benzylcyclopentyl]-3-[1-(2-methylpyridin-4-yl)-1H-pyrazolo[3,4-c]pyridin-5-yl)urea]: the IC50 is 13.9 nM. On to `Cc1cc(-n2ncc3cc(NC(=O)N[C@H]4[C@H](c5ccccc5C)CN(C)[C@H]4C)ncc32)ccn1` [Example 101, 1-[(2S,3S,4R)-1,2-dimethyl-4-(2-methylphenyl)-pyrrolidin-3-yl]-3-[1-(2-methylpyridin-4-yl)-1H-pyrazolo[3,4-c]pyridin-5-yl)urea], for which the IC50 stood at 0.5 nM. The same measure, in the same setting: in the case of `Cc1cc(-n2ncc3cc(NC(=O)N[C@H](C)c4ccccc4)nc(CN4CCOCC4)c32)ccn1` [Example 245, 1-[1-(2-methylpyridin-4-yl)-7-(morpholin-4-ylmethyl)-1H-pyrazolo[3,4-c]pyridin-5-yl]-3-[(1R)-1-phenylethyl]urea] it was 832 nM; in that of `Cc1cc(-n2ncc3cc(NC(=O)N[C@@H]4CN(C)C[C@H]4c4ccc(C)s4)ncc32)ccn1` [Example 124, 1-[(3S,4R)-1-methyl-4-(5-methylthiophen-2-yl)pyrrolidin-3-yl]-3-[1-(2-methylpyridin-4-yl)-1H-pyrazolo[3,4-c]pyridin-5-yl)urea], 1.01 nM. Consider `C[C@@H](NC(=O)Nc1cc2cnn(CCO)c2c(CO)n1)c1ccccc1` [Example 310, 1-[1-(2-hydroxyethyl)-7-(hydroxymethyl)-1H-pyrazolo[3,4-c]pyridin-5-yl]-3-[(1R)-1-phenylethyl]urea], for which the IC50 stood at 160 nM.

With `CCO[C@H]1CNC[C@@H]1NC(=O)Nc1cc2cnn(-c3ccnc(C)c3)c2cn1` [Example 272, 1-[(3S,4S)-4-ethoxypyrrolidin-3-yl]-3-[1-(2-methylpyridin-4-yl)-1H-pyrazolo[3,4-c]pyridin-5-yl]urea], the IC50 was 39.9 nM. On to `COC[C@@H](NC(=O)Nc1cc2cnn(C)c2cn1)c1ccccc1` [Example 237, 1-[(1S)-2-methoxy-1-phenylethyl]-3-(1-methyl-1H-pyrazolo[3,4-c]pyridin-5-yl)urea], for which the IC50 stood at 882 nM. Same read-out and setting: in the case of `Cc1cc(-n2ncc3cc(NC(=O)NC(C)c4ccc(-n5cncn5)cc4)ncc32)ccn1` (stereo not drawn) [Example 45, 1-[1-(2-methylpyridin-4-yl)-1H-pyrazolo[3,4-c]pyridin-5-yl]-3-{1-[4-(1H-1,2,4-triazol-1-yl)phenyl]ethyl}urea] it was 166 nM; in that of `C[C@@H](NC(=O)Nc1cc2cnn(C(C)(C)C)c2c(CO)n1)c1ccccc1` [Example 255, 1-[1-tert-butyl-7-(hydroxymethyl)-1H-pyrazolo[3,4-c]pyridin-5-yl]-3-[(1R)-1-phenylethyl]urea], 1260 nM.
